According to ChEMBL document CHEMBL6153174, “Design and Synthesis of Novel Deazapurine DNMT 1 Inhibitors with In Vivo Efficacy in DLBCL” (J Med Chem, 2025):

Experiments:
[1] = tested on: TMD8; assay: Induction of apoptosis in human TMD8 cells assessed as early apoptotic cells at 10 uM measured after 48 hrs by annexin-V/FITC and PI staining based flow cytometry analysis (reference value: 9.15%); assay type: functional
[2] = tested on: DOHH-2; assay: Induction of apoptosis in human DOHH-2 cells assessed as early apoptotic cells at 1 uM measured after 48 hrs by annexin-V/FITC and PI staining based flow cytometry analysis (reference value: 5.69%); assay type: functional
[3] = tested on: TMD8; assay: Induction of cell cycle arrest in human TMD8 cells assessed as accumulation of cells at G2/M phase at 1.0 uM incubated for 24 hrs by PI staining based flow cytometry analysis (reference value: 20.4%); assay type: functional
[4] = tested on: DOHH-2; assay: Induction of apoptosis in human DOHH-2 cells assessed as late apoptotic cells at 2.5 uM measured after 48 hrs by annexin-V/FITC and PI staining based flow cytometry analysis (reference value: 3.66%); assay type: functional
[5] = tested on: MV4-11; assay: Antiproliferative activity against human MV4-11 cells assessed as inhibition of cell viability measured after 72 hrs by MTT assay; assay type: functional, cell-based; conditions: MV4-11, 72 h
[6] = tested on: DOHH-2; assay: Induction of cell cycle arrest in human DOHH-2 cells assessed as accumulation of cells at S phase at 0.5 uM incubated for 24 hrs by PI staining based flow cytometry analysis (reference value: 40.7%); assay type: functional
[7] = Subacute toxicity in Balb/C mouse assessed as effect on liver at 30 mg/kg, iv administered three times in a week for 2 weeks; assay type: organism-based; conditions: in vivo, 336 h
[8] = tested on: TMD8; assay: Induction of apoptosis in human TMD8 cells assessed as late apoptotic cells at 1 uM measured after 48 hrs by annexin-V/FITC and PI staining based flow cytometry analysis (reference value: 5.13%); assay type: functional
[9] = tested on: TMD8; assay: Induction of cell cycle arrest in human TMD8 cells assessed as accumulation of cells at G2/M phase at 0.5 uM incubated for 24 hrs by PI staining based flow cytometry analysis (reference value: 20.4%); assay type: functional
[10] = tested on: DOHH-2; assay: Induction of cell cycle arrest in human DOHH-2 cells assessed as accumulation of cells at G0-G1 phase at 1 uM incubated for 24 hrs by PI staining based flow cytometry analysis (reference value: 27.1%); assay type: functional
[11] = tested on: TMD8; assay: Induction of apoptosis in human TMD8 cells assessed as late apoptotic cells at 2.51 uM measured after 48 hrs by annexin-V/FITC and PI staining based flow cytometry analysis (reference value: 5.13%); assay type: functional
[12] = tested on: TMD8; assay: Induction of cell cycle arrest in human TMD8 cells assessed as accumulation of cells at S phase at 1.0 uM incubated for 24 hrs by PI staining based flow cytometry analysis (reference value: 39.0%); assay type: functional
[13] = Antitumor activity against human TMD8 cells harbouring […] xenografted in mouse model assessed as tumor inhibition rate at 10 mg/kg, iv administered three times a week relative to control; assay type: functional; set-up: scale not given: the % may be the effect or the level left
[14] = tested on: DOHH-2; assay: Induction of apoptosis in human DOHH-2 cells assessed as early apoptotic cells measured after 48 hrs by annexin-V/FITC and PI staining based flow cytometry analysis; assay type: functional, cell-based; conditions: dose 0.25-5 µM
[15] = tested on: THP-1; assay: Antiproliferative activity against human THP-1 cells assessed as inhibition of cell viability measured after 72 hrs by MTT assay; assay type: functional, cell-based; conditions: THP-1, 72 h
[16] = Terminal elimination half life in Sprague-Dawley rat at 10 mg/kg, iv measured upto 24 hrs by LC/MS/MS analysis; assay type: ADME, organism-based; conditions: in vivo, read-out: beta t1/2 (converted)
[17] = tested on: HCT-116; assay: Antiproliferative activity against human HCT-116 cells assessed as inhibition of cell viability measured after 72 hrs by MTT assay; assay type: functional, cell-based; conditions: HCT-116, 72 h
[18] = Subacute toxicity in Balb/C mouse assessed as effect on kidney at 30 mg/kg, iv administered three times in a week for 2 weeks; assay type: organism-based; conditions: in vivo, 336 h
[19] = tested on: DOHH-2; assay: Induction of cell cycle arrest in human DOHH-2 cells assessed as accumulation of cells at G2-M phase at 1.0 uM incubated for 24 hrs by PI staining based flow cytometry analysis (reference value: 27.8%); assay type: functional
[20] = tested on: TMD8; assay: Induction of cell cycle arrest in human TMD8 cells assessed as accumulation of cells at S phase at 0.5 uM incubated for 24 hrs by PI staining based flow cytometry analysis (reference value: 39.0%); assay type: functional
[21] = tested on: DOHH-2; assay: Induction of cell cycle arrest in human DOHH-2 cells assessed as accumulation of cells at G0-G1 phase at 0.25 uM incubated for 24 hrs by PI staining based flow cytometry analysis (reference value: 27.1%); assay type: functional
[22] = Antitumor activity against human TMD8 cells harbouring […] xenografted in mouse model assessed as tumor inhibition rate at 10 mg/kg, iv administered three times a week in presence of chidamide relative to control; assay type: functional; set-up: scale not given: the % may be the effect or the level left
[23] = Subacute toxicity in Balb/C mouse assessed as effect on lung at 30 mg/kg, iv administered three times in a week for 2 weeks; assay type: organism-based; conditions: in vivo, 336 h
[24] = Antitumor activity against human TMD8 cells harbouring TP53 mutant xenografted in mouse model assessed as tumor inhibition rate at 10 mg/kg, iv administered three times a week in presence of chidamide relative to control; assay type: functional; set-up: scale not given: the % may be the effect or the level left
[25] = Downregulation of FAS methylation level in human DOHH-2 cells at 100 nM measured after 6 days by PCR analysis relative to control; assay type: functional; conditions: time 6 day
[26] = tested on: HeLa; assay: Antiproliferative activity against human HeLa cells assessed as inhibition of cell viability measured after 72 hrs by MTT assay; assay type: functional, cell-based
[27] = Oral bioavailability in Sprague-Dawley rat at 10 mg/kg measured upto 24 hrs by LC/MS/MS analysis; assay type: ADME, organism-based; conditions: Sprague-Dawley, in vivo
[28] = Volume of distribution at steady state in Sprague-Dawley rat at 10 mg/kg, po measured upto 24 hrs by LC/MS/MS analysis; assay type: ADME, organism-based; conditions: in vivo
[29] = tested on: TMD8; assay: Induction of cell cycle arrest in human TMD8 cells assessed as accumulation of cells at G0-G1 phase at 0.25 uM incubated for 24 hrs by PI staining based flow cytometry analysis (reference value: 40.7%); assay type: functional
[30] = tested on: U-937; assay: Antiproliferative activity against human U-937 cells assessed as inhibition of cell viability measured after 72 hrs by MTT assay; assay type: functional, cell-based; conditions: U-937, 72 h
[31] = tested on: HepG2; assay: Antiproliferative activity against human HepG2 cells assessed as inhibition of cell viability measured after 72 hrs by MTT assay; assay type: functional, cell-based; conditions: HepG2, 72 h
[32] = Antitumor activity against human TMD8 cells harbouring TP53 mutant xenografted in mouse model assessed as tumor inhibition rate at 10 mg/kg, iv administered three times a week relative to control; assay type: functional; set-up: scale not given: the % may be the effect or the level left
[33] = molecular target: DNA (cytosine-5)-methyltransferase 1 (Homo sapiens, UniProt P26358); assay: Inhibition of DNMT1 (unknown origin) preincubated for 15 mins followed by substrate and [3H-SAM] addition and measured after 60 mins by microbeta analysis
Chain of DNA (cytosine-5)-methyltransferase 1 (P26358 whole entry): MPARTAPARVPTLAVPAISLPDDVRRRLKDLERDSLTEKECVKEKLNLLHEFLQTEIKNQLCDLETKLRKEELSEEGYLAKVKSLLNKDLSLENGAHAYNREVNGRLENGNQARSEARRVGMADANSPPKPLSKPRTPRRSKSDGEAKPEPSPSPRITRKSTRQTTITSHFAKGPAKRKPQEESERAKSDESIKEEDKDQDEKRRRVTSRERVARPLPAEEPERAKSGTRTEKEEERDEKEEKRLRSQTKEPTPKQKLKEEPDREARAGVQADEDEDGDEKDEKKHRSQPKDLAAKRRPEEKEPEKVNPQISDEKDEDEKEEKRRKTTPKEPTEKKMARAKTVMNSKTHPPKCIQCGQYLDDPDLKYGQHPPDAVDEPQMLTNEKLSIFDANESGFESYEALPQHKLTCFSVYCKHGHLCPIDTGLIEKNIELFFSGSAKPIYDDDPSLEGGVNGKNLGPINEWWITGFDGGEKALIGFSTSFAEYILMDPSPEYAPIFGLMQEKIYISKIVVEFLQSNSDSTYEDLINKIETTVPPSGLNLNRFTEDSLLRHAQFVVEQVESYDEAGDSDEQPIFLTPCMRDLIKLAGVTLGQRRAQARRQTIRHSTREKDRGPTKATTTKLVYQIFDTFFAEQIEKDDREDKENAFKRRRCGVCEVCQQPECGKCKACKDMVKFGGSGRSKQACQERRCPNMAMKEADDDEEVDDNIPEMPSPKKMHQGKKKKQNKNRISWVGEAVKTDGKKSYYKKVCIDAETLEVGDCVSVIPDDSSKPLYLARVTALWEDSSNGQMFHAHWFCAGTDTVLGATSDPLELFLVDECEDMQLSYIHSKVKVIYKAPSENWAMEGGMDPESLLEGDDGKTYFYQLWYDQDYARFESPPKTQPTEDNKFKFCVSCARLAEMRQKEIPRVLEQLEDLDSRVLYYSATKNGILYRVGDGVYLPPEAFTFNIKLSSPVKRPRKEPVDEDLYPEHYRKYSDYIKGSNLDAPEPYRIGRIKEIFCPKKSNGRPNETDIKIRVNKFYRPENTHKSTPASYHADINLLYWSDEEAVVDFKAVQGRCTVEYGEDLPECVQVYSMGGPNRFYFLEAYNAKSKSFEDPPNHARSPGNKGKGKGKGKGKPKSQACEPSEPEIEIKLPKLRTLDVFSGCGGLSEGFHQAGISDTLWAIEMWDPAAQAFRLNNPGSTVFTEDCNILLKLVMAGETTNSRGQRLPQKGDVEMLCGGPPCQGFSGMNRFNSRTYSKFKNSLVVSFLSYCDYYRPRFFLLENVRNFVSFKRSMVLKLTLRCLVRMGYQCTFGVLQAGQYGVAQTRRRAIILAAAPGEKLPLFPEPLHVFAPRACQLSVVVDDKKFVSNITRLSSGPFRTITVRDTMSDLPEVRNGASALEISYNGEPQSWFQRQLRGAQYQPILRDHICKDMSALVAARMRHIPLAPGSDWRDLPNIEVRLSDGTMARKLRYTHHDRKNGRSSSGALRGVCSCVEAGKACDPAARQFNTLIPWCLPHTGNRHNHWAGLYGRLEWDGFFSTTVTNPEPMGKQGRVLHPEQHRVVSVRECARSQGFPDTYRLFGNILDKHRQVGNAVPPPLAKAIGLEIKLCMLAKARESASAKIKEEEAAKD

[34] = tested on: DOHH-2; assay: Induction of cell cycle arrest in human DOHH-2 cells assessed as accumulation of cells at G2-M phase at 0.5 uM incubated for 24 hrs by PI staining based flow cytometry analysis (reference value: 27.8%); assay type: functional
[35] = tested on: TMD8; assay: Induction of apoptosis in human TMD8 cells assessed as early apoptotic cells at 1 uM measured after 48 hrs by annexin-V/FITC and PI staining based flow cytometry analysis (reference value: 9.15%); assay type: functional

Molecule `CN1CCC(Nc2nc(-c3ccnc(F)c3)nc3c2ccn3CCCN2CCCC2)CC1` has an Activity [1] of 47.5%, an Activity [2] of 24% and an Activity [3] of 38.2%. It also gave an Activity [4] of 23.5%, an IC50 [5] of 950 nM and an Activity [6] of 26.6%. The Activity [7] was “Non-toxic”, the Activity [8] was 6.88% and the Activity [9] was 28.8%. For the same molecule, the Activity [10] was 42.2%, the Activity [11] was 10.5% and the Activity [12] was 29.3%. The Activity [13] was 65.7%, the Activity [14] was “Dose-dependent-effect” and the IC50 [15] was 2370 nM. For the same molecule, the half-life [16] was 10.8 h, the IC50 [17] was 720 nM and the Activity [18] was “Non-toxic”. It also gave an Activity [19] of 32%, an Activity [20] of 32.3% and an Activity [21] of 28.6%. The Activity [22] was 78.1%, the Activity [23] was “Non-toxic” and the Activity [24] was 83.2%. The Activity [25] was 54.2%, the IC50 [26] was 3020 nM and the bioavailability [27] was 23.4%. For the same molecule, the Vdss [28] was 574.7 L/kg, the Activity [29] was 37.9% and the IC50 [30] was 2210 nM. The IC50 [31] was 2880 nM, the Activity [32] was 58% and the IC50 [33] was 2420 nM. It also gave an Activity [34] of 29.1% and an Activity [35] of 15.7%.
